Measured values from ChEMBL document CHEMBL1158844, “Two new isoflavones from Ceiba pentandra and their effect on cyclooxygenase-catalyzed prostaglandin biosynthesis” (J Nat Prod, 1998).

Tests used:
[1] = target: T1, Prostaglandin G/H synthase 1 (Bos taurus, UniProt O62664); test: Inhibition of bovine seminal vesicle microsomal COX1-mediated prostaglandin production; assay type: microsomes
T1 sequence (O62664 whole entry): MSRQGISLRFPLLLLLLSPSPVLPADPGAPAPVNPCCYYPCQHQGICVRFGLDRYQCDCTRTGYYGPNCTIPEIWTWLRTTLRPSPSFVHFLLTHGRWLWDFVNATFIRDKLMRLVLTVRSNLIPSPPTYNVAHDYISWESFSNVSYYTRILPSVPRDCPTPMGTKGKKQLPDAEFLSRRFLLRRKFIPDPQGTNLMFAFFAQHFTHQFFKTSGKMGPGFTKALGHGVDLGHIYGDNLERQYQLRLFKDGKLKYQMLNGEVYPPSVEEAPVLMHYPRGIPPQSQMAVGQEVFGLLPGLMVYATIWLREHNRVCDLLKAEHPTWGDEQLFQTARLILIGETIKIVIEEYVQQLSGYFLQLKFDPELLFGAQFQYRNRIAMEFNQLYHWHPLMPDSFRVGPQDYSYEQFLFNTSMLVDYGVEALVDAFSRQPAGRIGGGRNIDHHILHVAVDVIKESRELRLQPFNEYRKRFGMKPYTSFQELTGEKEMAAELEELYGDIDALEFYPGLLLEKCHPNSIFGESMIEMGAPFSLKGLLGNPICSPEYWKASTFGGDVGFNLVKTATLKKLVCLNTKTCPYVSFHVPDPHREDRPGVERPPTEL

[2] = target: T2, Prostaglandin G/H synthase 2 (Ovis aries, UniProt P79208); test: Inhibition of sheep placental cotyledons COX2-mediated prostaglandin production
T2 sequence (P79208 whole entry): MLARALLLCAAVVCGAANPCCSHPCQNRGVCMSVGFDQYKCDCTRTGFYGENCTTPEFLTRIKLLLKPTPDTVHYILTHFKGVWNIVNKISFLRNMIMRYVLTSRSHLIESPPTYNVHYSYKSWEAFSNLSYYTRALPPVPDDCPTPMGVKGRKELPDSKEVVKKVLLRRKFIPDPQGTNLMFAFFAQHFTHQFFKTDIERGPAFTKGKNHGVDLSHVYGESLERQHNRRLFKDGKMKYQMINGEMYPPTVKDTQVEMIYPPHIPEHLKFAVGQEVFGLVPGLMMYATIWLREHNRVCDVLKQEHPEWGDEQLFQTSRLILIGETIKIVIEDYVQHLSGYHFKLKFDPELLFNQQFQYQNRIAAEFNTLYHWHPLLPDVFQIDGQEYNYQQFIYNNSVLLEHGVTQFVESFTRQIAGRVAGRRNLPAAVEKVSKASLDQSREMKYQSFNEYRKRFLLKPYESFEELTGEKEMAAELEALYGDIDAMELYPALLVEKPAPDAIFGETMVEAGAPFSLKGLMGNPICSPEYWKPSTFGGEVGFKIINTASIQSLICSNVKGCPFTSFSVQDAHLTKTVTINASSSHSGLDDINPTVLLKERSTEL

| SMILES | IC50 [1] [µM] | IC50 [2] [µM] |
| --- | --- | --- |
| COc1cc(O)c2c(=O)c(-c3cc(OC)c(OC)c(O[C@@H]4O[C@H](CO)[C@@H](O)[C@H](O)[C@H]4O)c3)coc2c1 | 381 | 1200 |
| COc1cc(O)c2c(=O)c(-c3cc(O)c(OC)c(OC)c3)coc2c1 | 97 | 900 |
| Oc1cc(O)c2c(c1)O[C@H](c1ccc(O)c(O)c1)[C@@H](O)C2 [CIANIDANOL] | 80 |  |
